# Read-outs that look alike come from different tables or passages of the source.
# Assays:
# C. albicans 14 = test: MIC, comparative in vitro testing against Martin compounds; type: cell-based; details: Casitone medium
# Description: (§1) Minimum Inhibitory Concentrations (MICS) of Sertaconazole were also measured in comparison to four of the compounds described in the Martin Patent, including a compound, referred to herein as Martin Compound 1, which has the same structure as Sertaconazole, expect that the sulfur in the benzothiophene ring is replaced by an oxygen.
# (§2) The results of comparative in vitro testing of Sertaconazole and these four Martin compounds are shown in the following Table II against 16 microorganisms. The reading time is the time interval from the time of inoculation to the time of measurement.
# C. albicans 15 = test: as above; type: cell-based; details: Casitone medium
# Description: as §1, §2
# C. albicans 31 = test: as above; type: cell-based; details: Candida albicans, 31, YNB medium, read-out: MIC
# Description: as §1, §2
# C. albicans 32 = test: as above; type: cell-based; details: Candida albicans, 32, YNB medium, read-out: MIC
# Description: as §1, §2
# C. albicans ATCC E-10231 = test: as above; type: cell-based; details: Candida albicans, ATCCE10231, Casitone medium, read-out: MIC
# Description: as §1, §2
# C. guillermondii = test: as above; type: cell-based; details: read-out: MIC
# Description: as §1, §2
# C. krusei 24 = test: as above; type: cell-based; details: read-out: MIC
# Description: as §1, §2
# C. parapsilosis 19 = test: as above; type: cell-based
# Description: as §1, §2
# C. pseudotropicalis 21 = test: as above; type: cell-based; details: Kluyveromyces marxianus, 21, Sabouraud medium, read-out: MIC
# Description: as §1, §2
# C. stellatoidea 36232 = test: as above; type: cell-based
# Description: as §1, §2
# C. tropicalis 25 = test: as above; type: cell-based; details: YNB medium
# Description: as §1, §2
# 16 microorganisms = test: Geometric mean of all MIC measurements, comparative in vitro testing; type: cell-based; details: read-out: Geometric means of MIC
# Description: as §1, §2
# in vivo = details: mouse, ip
# Description: (§3) Such signs included convulsions and Straub tail(vertical righting of the tail).
# Swiss mice [1] = test: Acute toxicity in Swiss mice i.p.; details: for LD0: Swiss mice i.p.
# Description: as §3
# Swiss mice [2] = details: mouse, in vivo
# Description: as §3
compound,measurement,setting,value
"Clc1ccc(C(Cn2ccnc2)OCc2coc3c(Cl)cccc23)c(Cl)c1 (centres unmarked) [Martin compound 1, reference compound]",MIC,"C. albicans 14; Candida albicans, 14, 60 h, reading time 60 h, SZ vs M1",2 µg/mL
same,MIC,"C. albicans 15; Candida albicans, 15, 60 h, reading time 60 h, SZ vs M1",1 µg/mL
same,MIC,"C. albicans 31; reading time 60 h, SZ vs M1",8 µg/mL
same,MIC,"C. albicans 32; reading time 60 h, SZ vs M1",8 µg/mL
same,MIC,"C. albicans ATCC E-10231; reading time 60 h, SZ vs M1",2 µg/mL
same,MIC,"C. guillermondii; 60 h, Casitone medium, reading time 60 h, SZ vs M1",0.5 µg/mL
same,MIC,"C. guillermondii; 60 h, YNB medium, reading time 60 h, SZ vs M1",0.5 µg/mL
same,MIC,"C. krusei 24; Pichia kudriavzevii, 24, 60 h, Casitone medium, reading time 60 h, SZ vs M1",1 µg/mL
same,MIC,"C. krusei 24; Pichia kudriavzevii, 24, 60 h, YNB medium, reading time 60 h, SZ vs M1",0.25 µg/mL
same,MIC,"C. parapsilosis 19; 19, 60 h, Sabouraud medium, reading time 60 h, SZ vs M1",1 µg/mL
same,MIC,"C. parapsilosis 19; 19, 60 h, YNB medium, reading time 60 h, SZ vs M1",0.5 µg/mL
same,MIC,"C. pseudotropicalis 21; reading time 60 h, SZ vs M1",0.03 µg/mL
same,MIC,"C. stellatoidea 36232; Candida albicans, 36232, 60 h, Casitone medium, reading time 60 h, SZ vs M1",0.5 µg/mL
same,MIC,"C. stellatoidea 36232; Candida albicans, 36232, 60 h, Sabouraud medium, reading time 60 h, SZ vs M1",1 µg/mL
same,MIC,"C. stellatoidea 36232; Candida albicans, 36232, 60 h, YNB medium, reading time 60 h, SZ vs M1",4 µg/mL
same,MIC,"C. tropicalis 25; Candida tropicalis, 25, 60 h, reading time 60 h, SZ vs M1",8 µg/mL
same,MIC,"16 microorganisms; 60 h, SZ vs M1, reading time 60 h",1.09 µg/mL
same,LD50,in vivo,518 mg/kg
same,LD0,Swiss mice [1],285 mg/kg
same,signs of intoxication in the central nervous system (convulsions and Straub tail),Swiss mice [1]; mice,evident signs of intoxication in the central nervous system
"Clc1ccc(C(Cn2ccnc2)OCc2coc3cc(Cl)ccc23)c(Cl)c1 (centres unmarked) [Martin compound 2, reference compound]",MIC,"C. albicans 14; Candida albicans, 14, 48 h, reading time 48 h, SZ vs M2",0.25 µg/mL
same,MIC,"C. albicans 15; Candida albicans, 15, 48 h, reading time 48 h, SZ vs M2",0.06 µg/mL
same,MIC,"C. albicans 31; reading time 48 h, SZ vs M2",4 µg/mL
same,MIC,"C. albicans 32; reading time 48 h, SZ vs M2",4 µg/mL
same,MIC,"C. albicans ATCC E-10231; reading time 48 h, SZ vs M2",0.5 µg/mL
same,MIC,"C. guillermondii; 48 h, Casitone medium, reading time 48 h, SZ vs M2",0.5 µg/mL
same,MIC,"C. guillermondii; 48 h, YNB medium, reading time 48 h, SZ vs M2",0.5 µg/mL
same,MIC,"C. krusei 24; Pichia kudriavzevii, 24, 48 h, Casitone medium, reading time 48 h, SZ vs M2",0.05 µg/mL
same,MIC,"C. krusei 24; Pichia kudriavzevii, 24, 48 h, YNB medium, reading time 48 h, SZ vs M2",0.5 µg/mL
same,MIC,"C. parapsilosis 19; 19, 48 h, Sabouraud medium, reading time 48 h, SZ vs M2",1 µg/mL
same,MIC,"C. parapsilosis 19; 19, 48 h, YNB medium, reading time 48 h, SZ vs M2",1 µg/mL
same,MIC,"C. pseudotropicalis 21; reading time 48 h, SZ vs M2",0.06 µg/mL
same,MIC,"C. stellatoidea 36232; Candida albicans, 36232, 48 h, Casitone medium, reading time 48 h, SZ vs M2",0.06 µg/mL
same,MIC,"C. stellatoidea 36232; Candida albicans, 36232, 48 h, Sabouraud medium, reading time 48 h, SZ vs M2",0.5 µg/mL
same,MIC,"C. stellatoidea 36232; Candida albicans, 36232, 48 h, YNB medium, reading time 48 h, SZ vs M2",1 µg/mL
same,MIC,"C. tropicalis 25; Candida tropicalis, 25, 48 h, reading time 48 h, SZ vs M2",8 µg/mL
same,MIC,"16 microorganisms; 48 h, SZ vs M2, reading time 48 h",0.565 µg/mL
same,LD50,in vivo,640 mg/kg
same,LD0,Swiss mice [1],235 mg/kg
"Clc1ccc(C(Cn2ccnc2)OCc2cc3cc(Cl)ccc3o2)c(Cl)c1 (centres unmarked) [Martin compound 3, reference compound]",MIC,"C. albicans 14; Candida albicans, 14, 48 h, reading time 48 h, SZ vs M3",0.5 µg/mL
same,MIC,"C. albicans 15; Candida albicans, 15, 48 h, reading time 48 h, SZ vs M3",0.06 µg/mL
same,MIC,"C. albicans 31; reading time 48 h, SZ vs M3",4 µg/mL
same,MIC,"C. albicans 32; reading time 48 h, SZ vs M3",4 µg/mL
same,MIC,"C. albicans ATCC E-10231; reading time 48 h, SZ vs M3",0.5 µg/mL
same,MIC,"C. guillermondii; 48 h, Casitone medium, reading time 48 h, SZ vs M3",0.25 µg/mL
same,MIC,"C. guillermondii; 48 h, YNB medium, reading time 48 h, SZ vs M3",0.25 µg/mL
same,MIC,"C. krusei 24; Pichia kudriavzevii, 24, 48 h, Casitone medium, reading time 48 h, SZ vs M3",0.125 µg/mL
same,MIC,"C. krusei 24; Pichia kudriavzevii, 24, 48 h, YNB medium, reading time 48 h, SZ vs M3",0.25 µg/mL
same,MIC,"C. parapsilosis 19; 19, 48 h, Sabouraud medium, reading time 48 h, SZ vs M3",0.5 µg/mL
same,MIC,"C. parapsilosis 19; 19, 48 h, YNB medium, reading time 48 h, SZ vs M3",1 µg/mL
same,MIC,"C. pseudotropicalis 21; reading time 48 h, SZ vs M3",0.03 µg/mL
same,MIC,"C. stellatoidea 36232; Candida albicans, 36232, 48 h, Casitone medium, reading time 48 h, SZ vs M3",0.125 µg/mL
same,MIC,"C. stellatoidea 36232; Candida albicans, 36232, 48 h, Sabouraud medium, reading time 48 h, SZ vs M3",0.5 µg/mL
same,MIC,"C. stellatoidea 36232; Candida albicans, 36232, 48 h, YNB medium, reading time 48 h, SZ vs M3",4 µg/mL
same,MIC,"C. tropicalis 25; Candida tropicalis, 25, 48 h, reading time 48 h, SZ vs M3",8 µg/mL
same,MIC,"16 microorganisms; 48 h, SZ vs M3, reading time 48 h",0.497 µg/mL
same,mice with generalized pulmonary edema and congestion,Swiss mice [2],80%
same,signs of intoxication in the central nervous system (convulsions and Straub tail),Swiss mice [2],evident signs of intoxication in the central nervous system
same,LD0,Swiss mice [2]; ip,423 mg/kg
same,LD50,in vivo,640 mg/kg
Clc1ccc(C(Cn2ccnc2)OCc2csc3c(Cl)cccc23)c(Cl)c1 (centres unmarked) [Sertaconazole nitrate],LD0,Swiss mice [2]; ip,2000 mg/kg
same,LD50,Swiss mice [2]; ip,8000 mg/kg

# Source: patent US5135943A, “1H-imidazole derivative compounds and pharmaceutical compositions containing the same” (priority 1984, dated 1992)
